A short description of data set [1]: Dye distribution and clearance in normal mouse tissues. Format: in vivo. The text has this: One mouse was sacrificed at 96 hrs after IR-780 injection through tail vein, and isolated tissues and organs excised from mice were cut into frozen slides and were imaged under confocal microscope.
To assess tissue distribution of these dyes, athymic mice without tumor implantation were sacrificed at 0, 6 and 80 hrs (N=3 each) after i.v. injection of IR-783 dye at a dose of 10 nmol/20 g. Dissected organs were subjected to NIR imaging by a Kodak Imaging Station 4000 MM. In another study the mice bearing orthotopic ARCaPM tumors were subjected to NIR imaging at 0.5, 24, 48, 72 and 96 hrs after IR-783 i.v. administration at a dose of 10 nmol/20 g. In some cases, we also assessed the biodistribution of NIR dye by a spectral method in tissues harvested from athymic mice bearing subcutaneous ARCaPM tumors (N=6). Tumors and normal host organs were homogenized in PBS, centrifuged at 15,000×g for 15 minutes to recover the supernatant fraction after the mice were injected i.p. with IR-783 at a dose of 10 nmol/20 g. The presence of the organic dyes (parental IR-783 and its metabolites) in tissues was estimated spectrophotometrically at an emission wavelength of 820 nm by a PTI Near Infrared Fluorometer QuantaMaster™ 50 (PTI, Birmingham, N.J.) equipped with a 75-watt xenon arc lamp under 500 to 1700 nm InGaAs detector using known concentrations of IR-783 as the standard (28). In other cases, tumor tissues harvested from mice were stored in formalin from 1 week to 3 months, and fluorescence images were obtained and compared.

For data set [2], the system named is human tumor xenografts. Nature of the data set: NIR imaging of human tumor xenografts in live mice. Particulars: for tumor imaging of subcutaneous xenografts: Kodak multimodal-imaging system; for dye uptake and signal in human xenograft implants at various sites: subcutaneous, orthotopic or intraosseous tumors, i.p. or i.v. dye; for duration of dye uptake and retention in tumors after dye administration: tumors in live mice. The text has this:
[…] After variable time of the dye injection, the mice were anesthetized and imaged by using the Kodak animal in vivo imaging system, which can obtain both the NIR signal and the X-ray picture and these images were merged. […] IR-783 uptake into metastatic human prostate tumors was studied in ARCaP model.
Uptake and accumulation of cyanine dyes in tumors in live mice Human cancer cells were implanted (1×10^6) either subcutaneously, orthotopically, or intraosseously into 4 to 6 week old athymic nude mice (National Cancer Institute, Frederick, Md.) according to our previously published procedures (26, 27). All animal studies were conducted under the Emory University Animal Care and Use Committee guidelines. […] Whole body optical imaging was taken at 24 h using a Kodak Imaging Station 4000 MM (New Haven, Conn.) equipped with fluorescent filter sets (excitation/emission, 800/850 nm). The field of view (FOV) was 120 mm in diameter. The frequency rate for NIR excitation light was 2 mW/cm^2. The camera settings included maximal gain, 2×2 binning, 1024×1024 pixel resolution, and an exposure time of 5 sec. In some instances, live mice were also imaged by an Olympus OV100 Whole Mouse Imaging System (excitation 762 nm; emission 800 nm) (Olympus Corp., Tokyo, Japan), containing a MT-20 light source (Olympus Biosystems, Planegg, Germany) and DP70 CCD camera (Olympus). Prior to imaging, mice were anesthetized with ketamine (75 mg/kg). During imaging, mice were maintained in an anesthetized state.
Human renal cancer cells (ACHN and SN12C) were implanted (1×10^6) subcutaneously and intraosseously into 4 to 6 week old athymic nude mice, respectively. And, we also implanted Caki-1 cells into the renal capsule of athymic nude mice to establish subrenal capsule xenografts of renal cancer as previously described.^70 When tumor sizes reached between 1-6 mm in diameter, as assessed by X-ray or by palpation, mice were […] Whole body optical imaging was taken at 24 h using a Kodak Imaging Station Imaging System 4000 MM (New Haven, Conn.) equipped with fluorescent filter sets (excitation/emission, 800/850 nm). The field of view (FOV) was 120 mm in diameter. The frequency rate for NIR excitation light was 2 mW/cm^2. The camera settings included maximal gain, 2×2 binning, 1024×1024 pixel resolution, and an exposure time of 5 sec. After whole body NIR imaging, the dissected organs and tumors were subjected to ex vivo imaging. Prior to imaging, mice were anesthetized with ketamine (75 mg/kg). During imaging, mice were maintained in an anesthetized state.
A general note: In xenograft studies the graft and the host belong to different species.

In data set [3] the test system is ARCaPM cells. The data set can be described thus: Subcellular co-localization with mitochondria and lysosome tracking dyes. Particulars: Mito Tracker and Lyso Tracker co-staining. The class given is cell-based, human. Here is the method:
Cells were plated on live-cell imaging chambers (World Precision Instrument, Sarasota, Fla.) overnight. Cells were exposed to cyanine dyes at different concentrations and dye uptake was evaluated by a Perkin-Elmer Ultraview ERS spinning disc confocal microscope. This system was mounted on a Zeiss Axiovert 200m inverted microscope equipped with a 37° C. stage warmer, incubator, and constant CO2 perfusion. A 63× or 100× Zeiss oil objective (numerical aperture, 1.4) was used for live cell images and a Z-stack was created using the attached piezoelectric z-stepper motor. The 633 nm laser line of an argon ion laser (set at 60% power) was used to excite the cyanine dyes. […] For comparative studies, the exposure time and laser intensity were kept identical for accurate intensity measurements. Pixel intensity was quantified using Metamorph 6.1 (Universal Imaging, Downingtown, Pa.) and the mean pixel intensity was generated as grey level using the Region Statistics feature on the software (23). To determine the dye uptake by the mitochondria, the mitochondrial tracking dye Mito Tracker Orange CMTMROS (Molecular Probes, Carlsbad, Calif.) was used. To determine the dye localization in lysosomes, a lysosome tracking dye, Lyso Tracker Green DND-26 (Molecular Probes, Carlsbad, Calif.), was selected. […]

Data set [4] has as its system human cancer cells. Nature of the data set: Uptake of NIR dyes by cultured human cancer cell lines (confocal NIR imaging). Format: cell-based. Particulars: for uptake of dye by human cancer cell lines in culture: panel of prostate, breast, cervical, lung, liver, pancreatic, renal, bladder and leukemia lines, confocal microscope.
Procedure: Cells (1×10^4/well) were seeded on vitronectin-coated four-well chamber slides (Nalgen Nunc, Naperville, Ill.) and incubated with T-medium containing 5% FBS for 24 h. After the cells had attached to the chamber slides, the cells were washed with PBS (Phosphate Buffered Saline) and exposed to the cyanine dye at a concentration of 20 μM in T-medium. The slides were incubated at 37° C. for 30 min, washed twice with PBS to remove excess dyes, and cells were fixed with 10% formaldehyde at 4° C. The slides were then washed twice with PBS and covered with glass coverslips with an aqueous mounting medium (Sigma-Aldrich, St. Louis, Mo.). Images were recorded by confocal laser microscopy (Zeiss LSM 510 META, Germany) using a 633 nm excitation laser and 670-810 nm long pass filter, or a fluorescence microscope (Olympus 1×71; Olympus, Melville, N.Y.) equipped with a 75 W Xenon lamp and an Indo-Cyanine Green filter cube (excitation 750-800 nm; emission 820-860 nm) (Chroma, Rockingham, Vt.).
Cells (1×10^4/well) were seeded on vitronectin-coated four-well chamber slides (Nalgen Nunc, Naperville, Ill.) and incubated with T-medium containing 5% FBS for 24 h. After the cells had attached to the chamber slides, the cells were washed with PBS (Phosphate Buffered Saline) and exposed to the cyanine dye at a concentration of 20 μM in medium. The slides were incubated at 37° C. for 30 min, washed twice with PBS to remove excess dyes, and fixed with 10% formaldehyde at 4° C. The slides were then washed twice with PBS and covered with glass coverslips with aqueous mounting medium (Sigma-Aldrich, St. Louis, Mo.). Images were recorded by confocal laser microscopy (Zeiss LSM 510 META, Germany) equipped with 633 nm excitation laser and 670-810 nm long pass filter.
[5] abbreviates: mice bearing subcutaneous ACHN tumors.

Entries after “also recorded” stand apart in the source; their conditions may differ.

Take “2-[2-[2-Chloro-3-[2-[1,3-dihydro-3,3-dimethyl-1-(4-sulfobutyl)-2H-indol-2-ylidene]-ethylidene]-1-cyclohexen-1-yl]-ethenyl]-3,3-dimethyl-1-(4-sulfobutyl)-3H-indolium [IR-783]”: the organs accumulating dye entry in data set [1] (6 hrs after i.v. 10 nmol/20 g, normal mice) was “accumulate in mouse liver, kidney, lung and heart”. Moreover, in data set [1] (80 hrs after i.v. 10 nmol/20 g, normal mice), the “dye in vital organs at 80 hrs” value is given as “completely cleared”. The “time by which dye was cleared from all mouse vital organs” value in data set [1] (i.v. 10 nmol/20 g, normal mice) is not above 80 h. Further, the “time period within which dye was cleared from normal organs” value in data set [1] (liver, kidney, testis and seminal vesicles, live animals) is not above 96 h. The “tumor imaging of subcutaneous xenografts” value in data set [2] (5 nmol dye through tail vein) is listed as “clear tumor images can be detected”. Besides, the “time after dye at which optimal images of tumors and metastases are obtained” value in data set [2] (metastatic prostate tumors (ARCaP orthotopic) in mice) lay within 24 to 48 h. In data set [2] (setting [5]), the “signal in tumor specimens, ex vivo analysis” value is “higher signals in tumor specimens” and the “signals in other normal organs, ex vivo analysis” value is reported as “very low signals”. Also, in data set [2] (orthotopic ARCaPM (ARCaP) tumors in mice), the “dye uptake by orthotopic ARCaPM tumors” value was “strong uptake; also recorded: active uptake; also recorded: dye uptake and retention seen in an ARCaPM orthotopic tumor”. Moreover, the “tumor signal in whole-body NIR imaging” value in data set [2] (subcutaneous renal tumors (ACHN), Kodak System) is “signals could be clearly visualized in the tumors”. Besides, in data set [2], the “dye uptake and signal in human xenograft implants at various sites” value is reported as “found in a broad spectrum of human xenograft implants; also recorded: intense signals were clearly associated with the tumors; also recorded: both tumors were detected”; the “duration of dye uptake and retention in tumors after dye administration” value is “up to 15 days”. In addition, the “signal at anatomical sites of implanted tumors” value in data set [2] (subrenal capsule (Caki-1) and intraosseous (SN12C) renal tumor xenografts) is on record as “strong signals”. Also, in data set [2] (tumors in mice), the “size of tumors that can be imaged” value is reported as “approximately 1 mm^3” and the “tumor weight that can be imaged” value is “approximately 1 mg”. Besides, the “subcellular localization of the dye” value in data set [3] is “condense on mitochondrial and lysosomal organelles; also recorded: a large portion of the IR-783 was co-localized with these subcellular organelles”. Further, in data set [4], the “uptake of dye by human bladder cancer cell lines” value is reported as “strong uptake” and the “uptake of dye by human pancreatic cancer cell lines” value is “strong uptake”. Also, the “dye uptake into cancer cells at 0° C.” value in data set [4] (data not shown) was “no dye uptake and none”. Further, the “dye uptake into cancer cells at 37° C.” value in data set [4] (37° C., data not shown) is reported as “high”. For the same compound, the “uptake of dye by human renal cancer cells” value in data set [4] (SN12C, ACHN, Caki-1, 20 μM dye, 30 min) is reported as “significant uptake; also recorded: actively taking up”. In addition, the “uptake of dye by human cancer cell lines in culture” value in data set [4] (20 μM dye, 30 min) was “preferentially taken up and retained by cancer but not normal cells; also recorded: a wide range of cancer cells but not normal cells were taking up these dyes; also recorded: retained in cancerous cells of human origin; also recorded: significant uptake”.
With `CCCN1C(=CC=C2CCCC(C=CC3=[N+](CCC)c4ccccc4C3(C)C)=C2Cl)C(C)(C)c2ccccc21.[I-]` [IR-780, 2-[2-[2-Chloro-3-[(1,3-dihydro-3,3-dimethyl-1-propyl-2H-indol-2-ylidene)ethylidene]-1-cyclohexen-1-yl]ethenyl]-3,3-dimethyl-1-propylindolium iodide], the “dye uptake in normal mouse tissues” value in data set [1] (96 hrs after injection through tail vein, frozen slides, confocal) is given as “all mouse tissues failed to uptake this organic dye”. Further, in data set [2] (5 nmol dye through tail vein), the “tumor imaging of intratibial ARCaPM tumors” value is given as “clear tumor images can be detected” and the “tumor imaging of subcutaneous xenografts” value was “clear tumor images can be detected in all subcutaneous tumors”. In addition, in data set [2], the “dye uptake and signal in human xenograft implants at various sites” value is “found in a broad spectrum of human xenograft implants”; the “duration of dye uptake and retention in tumors after dye administration” value is recorded as not above 15 days. The “subcellular localization of the dye” value in data set [3] is “co-localized with both mitochondria and lysosomes; also recorded: Co-localization of IR-780 and mitochondrial and lysosome were shown”. Moreover, in data set [4] (data not shown), the “dye uptake into cancer cells at 0° C.” value was “no dye uptake”. Also, the “uptake of dye by human cancer cell lines in culture” value in data set [4] (20 μM dye, 30 min) was “preferentially taken up and retained by cancer but not normal cells; also recorded: a wide range of cancer cells but not normal cells were taking up these dyes; also recorded: significant uptake”.

The record behind these values is patent publication US20170314056A1, “METHOD OF USING NEAR INFRARED FLUORESCENT DYES FOR IMAGING AND TARGETING CANCERS” (priority 2010, published 2017).
